Starred links: 1 amine or outer side, 2 acyl side, 3 side chain; linkers in the order of their positions; H or OH if unused. *: point of attachment. Palmitoyl = CCCCCCCCCCCCCCCC(=O)*; Suc = O=C(CCC(=O)[*:2])[*:1]; Pentanoyl = CCCCC(=O)*
Assays:
[1] = test system: HIV mutant virus strain HXB2D with mutation Q40H in the gp41 gene; test: Standard AVE, HXB2D site directed mutant Q40H; format: cell-based, HIV-1; conditions: fold change vs wild type strain HXB2D
From the text: • Standard Anti-Viral-Experiment “AVE” (wild type HIV strain IIIB+HIV strain HXB2D side directed mutants V38A and Q40H)
The HIV-1 replication assay measures virus replication (HIV wild type virus strain 111B or HXB2D, or a HIV mutant virus strain HXB2D with mutation V38A or Q40H in the gp41 gene) as an induction of enhanced green fluorescent protein (EGFP) expression. The indicator MT4-LTR-EGFP cells contain an EGFP gene under the control of the HIV-1 LTR promoter sequence. Successful HIV-1 infection results in viral Tat protein expression and subsequent induction of EGFP expression. Compounds/peptides inhibiting HIV-1 infection are expected to reduce EGFP expression as compared to the untreated HIV-infected control.
Serial 4-fold dilutions of test compounds/peptides were mixed with HIV-1 (IIIB, HXB2D, or a HXB2D mutant virus (V38A or Q40H)) and MT4-LTR-EGFP cells and incubated at 37° C. After 3 days, the wells were examined for EGFP expression using an argon laser-scanning microscope. The effective compound/peptide concentration inhibiting 50% of the virus-induced EGFP signal (EC50) was determined by linear interpolation of the EGFP signal vs. logarithm of the compound concentration; (T20, C34 and Sifuvirtide were added as reference compounds). For the V38A and Q40H mutant viruses, results were reported as a fold change in EC50, as compared with a drug-susceptible wild type strain HXB2D, which forms the backbone of the mutant virus. • Standard AVE (50% Human Serum)

[2] = test system: HIV wild type virus strain IIIB; test: Standard Anti-Viral-Experiment (AVE), HIV-1 replication assay in MT4-LTR-EGFP cells, wild type IIIB; format: cell-based; conditions: 3 days, EGFP signal
Method in brief: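 MT4-LTR-EGFP cells infected with HIV-1 IIIB, HXB2D or HXB2D gp41 mutants V38A/Q40H alongside serial 4-fold compound dilutions, 3 days at 37° C. EGFP read by laser-scanning microscopy; EC50 by linear interpolation against log concentration. Mutant results given as fold change in EC50 versus wild-type HXB2D.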

HIV-IIIB + 50% HS = test: Standard AVE (50% Human Serum), HIV-1 replication assay in MT4-LTR-EGFP cells; format: cell-based; conditions: fold change vs EC50 in the assay without human serum
Method in brief: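 MT4-LTR-EGFP cells infected with HIV-1 alongside 4-fold serial compound dilutions in 50% human serum, 3 days at 37 °C. EGFP read by laser-scanning microscopy; EC50 by linear interpolation against log concentration, reported as fold change versus EC50 without serum.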

Pentanoyl-ANYAALIEALIRKAQEQQEKNEAALR-NH2 (SMILES CCCCC(=O)N[C@@H](C)C(=O)N[C@@H](CC(N)=O)C(=O)N[C@@H](Cc1ccc(O)cc1)C(=O)N[C@@H](C)C(=O)N[C@@H](C)C(=O)N[C@@H](CC(C)C)C(=O)N[C@H](C(=O)N[C@@H](CCC(=O)O)C(=O)N[C@@H](C)C(=O)N[C@@H](CC(C)C)C(=O)N[C@H](C(=O)N[C@@H](CCCNC(=N)N)C(=O)N[C@@H](CCCCN)C(=O)N[C@@H](C)C(=O)N[C@@H](CCC(N)=O)C(=O)N[C@@H](CCC(=O)O)C(=O)N[C@@H](CCC(N)=O)C(=O)N[C@@H](CCC(N)=O)C(=O)N[C@@H](CCC(=O)O)C(=O)N[C@@H](CCCCN)C(=O)N[C@@H](CC(N)=O)C(=O)N[C@@H](CCC(=O)O)C(=O)N[C@@H](C)C(=O)N[C@@H](C)C(=O)N[C@@H](CC(C)C)C(=O)N[C@@H](CCCNC(=N)N)C(N)=O)[C@@H](C)CC)[C@@H](C)CC) [Peptide 16]
HIV-HXB2D Q40H mutant (fold change in EC50) [1]: >108
EC50 [2]: 8 nM
HIV-IIIB + 50% HS (Fold change in EC50) (HIV-IIIB + 50% HS): 0.8

Pentanoyl-ANYLALIEALIRAAQEQQEKNEAALR-NH2 (SMILES CCCCC(=O)N[C@@H](C)C(=O)N[C@@H](CC(N)=O)C(=O)N[C@@H](Cc1ccc(O)cc1)C(=O)N[C@@H](CC(C)C)C(=O)N[C@@H](C)C(=O)N[C@@H](CC(C)C)C(=O)N[C@H](C(=O)N[C@@H](CCC(=O)O)C(=O)N[C@@H](C)C(=O)N[C@@H](CC(C)C)C(=O)N[C@H](C(=O)N[C@@H](CCCNC(=N)N)C(=O)N[C@@H](C)C(=O)N[C@@H](C)C(=O)N[C@@H](CCC(N)=O)C(=O)N[C@@H](CCC(=O)O)C(=O)N[C@@H](CCC(N)=O)C(=O)N[C@@H](CCC(N)=O)C(=O)N[C@@H](CCC(=O)O)C(=O)N[C@@H](CCCCN)C(=O)N[C@@H](CC(N)=O)C(=O)N[C@@H](CCC(=O)O)C(=O)N[C@@H](C)C(=O)N[C@@H](C)C(=O)N[C@@H](CC(C)C)C(=O)N[C@@H](CCCNC(=N)N)C(N)=O)[C@@H](C)CC)[C@@H](C)CC) [Peptide 15]
HIV-HXB2D Q40H mutant (fold change in EC50) [1]: 168
EC50 [2]: 2 nM
HIV-IIIB + 50% HS (Fold change in EC50) (HIV-IIIB + 50% HS): 2

Pentanoyl-ECYLCLIEELIRKAQEQQEKNEAALR-NH2 (cysteine pairing not given here) [Peptide 92]
HIV-HXB2D Q40H mutant (fold change in EC50) [1]: 3
EC50 [2]: 1 nM
HIV-IIIB + 50% HS (Fold change in EC50) (HIV-IIIB + 50% HS): 5

Pentanoyl-ECYLRCIEELIRKAQEQQEKNEAALR-NH2 (cysteine pairing not given here) [Peptide 91]
HIV-HXB2D Q40H mutant (fold change in EC50) [1]: 5
EC50 [2]: 1 nM
HIV-IIIB + 50% HS (Fold change in EC50) (HIV-IIIB + 50% HS): 5

Pentanoyl-ENYLALIEELIRKAQEQQEKNEAALR-NH2 (SMILES CCCCC(=O)N[C@@H](CCC(=O)O)C(=O)N[C@@H](CC(N)=O)C(=O)N[C@@H](Cc1ccc(O)cc1)C(=O)N[C@@H](CC(C)C)C(=O)N[C@@H](C)C(=O)N[C@@H](CC(C)C)C(=O)N[C@H](C(=O)N[C@@H](CCC(=O)O)C(=O)N[C@@H](CCC(=O)O)C(=O)N[C@@H](CC(C)C)C(=O)N[C@H](C(=O)N[C@@H](CCCNC(=N)N)C(=O)N[C@@H](CCCCN)C(=O)N[C@@H](C)C(=O)N[C@@H](CCC(N)=O)C(=O)N[C@@H](CCC(=O)O)C(=O)N[C@@H](CCC(N)=O)C(=O)N[C@@H](CCC(N)=O)C(=O)N[C@@H](CCC(=O)O)C(=O)N[C@@H](CCCCN)C(=O)N[C@@H](CC(N)=O)C(=O)N[C@@H](CCC(=O)O)C(=O)N[C@@H](C)C(=O)N[C@@H](C)C(=O)N[C@@H](CC(C)C)C(=O)N[C@@H](CCCNC(=N)N)C(N)=O)[C@@H](C)CC)[C@@H](C)CC) [Peptide 52]
HIV-HXB2D Q40H mutant (fold change in EC50) [1]: 38
EC50 [2]: 1 nM
HIV-IIIB + 50% HS (Fold change in EC50) (HIV-IIIB + 50% HS): 2

SUC-ACYLACIDELIAKAQEQQEKNEAALR-NH2 (Suc-ACYLACIDELIAKAQEQQEKNEAALR-NH2; cysteine pairing not given here) [Peptide 36]
HIV-HXB2D Q40H mutant (fold change in EC50) [1]: 373
EC50 [2]: 2 nM
HIV-IIIB + 50% HS (Fold change in EC50) (HIV-IIIB + 50% HS): 0.4

SUC-ACYLACIDELIKKAQEQQEKNEAALR-NH2 (Suc-ACYLACIDELIKKAQEQQEKNEAALR-NH2; cysteine pairing not given here) [Peptide 30]
HIV-HXB2D Q40H mutant (fold change in EC50) [1]: 145
EC50 [2]: 1 nM
HIV-IIIB + 50% HS (Fold change in EC50) (HIV-IIIB + 50% HS): 0.5

SUC-CYLACIEALIRAAQEQQEKNEAALR-NH2 (Suc-CYLACIEALIRAAQEQQEKNEAALR-NH2; cysteine pairing not given here) [Peptide 26]
HIV-HXB2D Q40H mutant (fold change in EC50) [1]: 311
EC50 [2]: 1 nM
HIV-IIIB + 50% HS (Fold change in EC50) (HIV-IIIB + 50% HS): 1

SUC-ECYLACIEALIRAAQEQQEKNEAALR-NH2 (Suc-ECYLACIEALIRAAQEQQEKNEAALR-NH2; cysteine pairing not given here) [Peptide 33]
HIV-HXB2D Q40H mutant (fold change in EC50) [1]: 269
EC50 [2]: 1 nM
HIV-IIIB + 50% HS (Fold change in EC50) (HIV-IIIB + 50% HS): 0.6

Suc-ACYLACIEALIRAAQEQQEKNEAALR-NH2 (cysteine pairing not given here) [Peptide 43]
HIV-HXB2D Q40H mutant (fold change in EC50) [1]: 103
EC50 [2]: 2 nM
HIV-IIIB + 50% HS (Fold change in EC50) (HIV-IIIB + 50% HS): 1

Suc-ACYLACIEELIRKAQEQQEKNEAALr-NH2 [Peptide 34]
HIV-HXB2D Q40H mutant (fold change in EC50) [1]: 265
EC50 [2]: 2 nM
HIV-IIIB + 50% HS (Fold change in EC50) (HIV-IIIB + 50% HS): 0.3

Suc-ANYLALIEALIRAAQEQQEKNEAALK(palmitoyl)-NH2 (Suc-ANYLALIEALIRAAQEQQEKNEAALK(Palmitoyl)-NH2; SMILES CCCCCCCCCCCCCCCC(=O)NCCCC[C@H](NC(=O)[C@H](CC(C)C)NC(=O)[C@H](C)NC(=O)[C@H](C)NC(=O)[C@H](CCC(=O)O)NC(=O)[C@H](CC(N)=O)NC(=O)[C@H](CCCCN)NC(=O)[C@H](CCC(=O)O)NC(=O)[C@H](CCC(N)=O)NC(=O)[C@H](CCC(N)=O)NC(=O)[C@H](CCC(=O)O)NC(=O)[C@H](CCC(N)=O)NC(=O)[C@H](C)NC(=O)[C@H](C)NC(=O)[C@H](CCCNC(=N)N)NC(=O)[C@@H](NC(=O)[C@H](CC(C)C)NC(=O)[C@H](C)NC(=O)[C@H](CCC(=O)O)NC(=O)[C@@H](NC(=O)[C@H](CC(C)C)NC(=O)[C@H](C)NC(=O)[C@H](CC(C)C)NC(=O)[C@H](Cc1ccc(O)cc1)NC(=O)[C@H](CC(N)=O)NC(=O)[C@H](C)NC(=O)CCC(=O)O)[C@@H](C)CC)[C@@H](C)CC)C(N)=O) [Peptide 13]
HIV-HXB2D Q40H mutant (fold change in EC50) [1]: 9
EC50 [2]: 0.4 nM
HIV-IIIB + 50% HS (Fold change in EC50) (HIV-IIIB + 50% HS): 9

Suc-ANYLALIEALIRAAQEQQEKNEAALR-NH2 (SMILES CC[C@H](C)[C@H](NC(=O)[C@H](CC(C)C)NC(=O)[C@H](C)NC(=O)[C@H](CCC(=O)O)NC(=O)[C@@H](NC(=O)[C@H](CC(C)C)NC(=O)[C@H](C)NC(=O)[C@H](CC(C)C)NC(=O)[C@H](Cc1ccc(O)cc1)NC(=O)[C@H](CC(N)=O)NC(=O)[C@H](C)NC(=O)CCC(=O)O)[C@@H](C)CC)C(=O)N[C@@H](CCCNC(=N)N)C(=O)N[C@@H](C)C(=O)N[C@@H](C)C(=O)N[C@@H](CCC(N)=O)C(=O)N[C@@H](CCC(=O)O)C(=O)N[C@@H](CCC(N)=O)C(=O)N[C@@H](CCC(N)=O)C(=O)N[C@@H](CCC(=O)O)C(=O)N[C@@H](CCCCN)C(=O)N[C@@H](CC(N)=O)C(=O)N[C@@H](CCC(=O)O)C(=O)N[C@@H](C)C(=O)N[C@@H](C)C(=O)N[C@@H](CC(C)C)C(=O)N[C@@H](CCCNC(=N)N)C(N)=O) [Peptide 7]
HIV-HXB2D Q40H mutant (fold change in EC50) [1]: 764
EC50 [2]: 2 nM
HIV-IIIB + 50% HS (Fold change in EC50) (HIV-IIIB + 50% HS): 0.6

Suc-ECYLRCIEELIRKAQEQQEKNEAALR-NH2 (cysteine pairing not given here) [Peptide 29]
HIV-HXB2D Q40H mutant (fold change in EC50) [1]: 98
EC50 [2]: 0.8 nM
HIV-IIIB + 50% HS (Fold change in EC50) (HIV-IIIB + 50% HS): 0.6

Suc-ENYLRLIEELIRKAQEQQEKNEAALR-NH2 (SMILES CC[C@H](C)[C@H](NC(=O)[C@H](CC(C)C)NC(=O)[C@H](CCC(=O)O)NC(=O)[C@H](CCC(=O)O)NC(=O)[C@@H](NC(=O)[C@H](CC(C)C)NC(=O)[C@H](CCCNC(=N)N)NC(=O)[C@H](CC(C)C)NC(=O)[C@H](Cc1ccc(O)cc1)NC(=O)[C@H](CC(N)=O)NC(=O)[C@H](CCC(=O)O)NC(=O)CCC(=O)O)[C@@H](C)CC)C(=O)N[C@@H](CCCNC(=N)N)C(=O)N[C@@H](CCCCN)C(=O)N[C@@H](C)C(=O)N[C@@H](CCC(N)=O)C(=O)N[C@@H](CCC(=O)O)C(=O)N[C@@H](CCC(N)=O)C(=O)N[C@@H](CCC(N)=O)C(=O)N[C@@H](CCC(=O)O)C(=O)N[C@@H](CCCCN)C(=O)N[C@@H](CC(N)=O)C(=O)N[C@@H](CCC(=O)O)C(=O)N[C@@H](C)C(=O)N[C@@H](C)C(=O)N[C@@H](CC(C)C)C(=O)N[C@@H](CCCNC(=N)N)C(N)=O) [Peptide 20]
HIV-HXB2D Q40H mutant (fold change in EC50) [1]: 80
EC50 [2]: 0.7 nM
HIV-IIIB + 50% HS (Fold change in EC50) (HIV-IIIB + 50% HS): 1
